Assay results published in ChEMBL document CHEMBL5346880, “ATP-competitive inhibitors of human DNA topoisomerase IIα with improved antiproliferative activity based on N-phenylpyrrolamide scaffold” (Eur J Med Chem, 2023).
pIC50: −log10 of the molar value. In brackets after ≈: the same amount, converted by molar mass.

What was measured:
[1] = target: T1, DNA topoisomerase 2-alpha (Homo sapiens, UniProt P11388); test: Inhibition of human DNA topoisomerase 2 alpha assessed as relaxation of supercoiled plasmid pNO1 DNA incubated for 30 mins by fluorescence based analysis
T1 sequence (P11388 whole entry): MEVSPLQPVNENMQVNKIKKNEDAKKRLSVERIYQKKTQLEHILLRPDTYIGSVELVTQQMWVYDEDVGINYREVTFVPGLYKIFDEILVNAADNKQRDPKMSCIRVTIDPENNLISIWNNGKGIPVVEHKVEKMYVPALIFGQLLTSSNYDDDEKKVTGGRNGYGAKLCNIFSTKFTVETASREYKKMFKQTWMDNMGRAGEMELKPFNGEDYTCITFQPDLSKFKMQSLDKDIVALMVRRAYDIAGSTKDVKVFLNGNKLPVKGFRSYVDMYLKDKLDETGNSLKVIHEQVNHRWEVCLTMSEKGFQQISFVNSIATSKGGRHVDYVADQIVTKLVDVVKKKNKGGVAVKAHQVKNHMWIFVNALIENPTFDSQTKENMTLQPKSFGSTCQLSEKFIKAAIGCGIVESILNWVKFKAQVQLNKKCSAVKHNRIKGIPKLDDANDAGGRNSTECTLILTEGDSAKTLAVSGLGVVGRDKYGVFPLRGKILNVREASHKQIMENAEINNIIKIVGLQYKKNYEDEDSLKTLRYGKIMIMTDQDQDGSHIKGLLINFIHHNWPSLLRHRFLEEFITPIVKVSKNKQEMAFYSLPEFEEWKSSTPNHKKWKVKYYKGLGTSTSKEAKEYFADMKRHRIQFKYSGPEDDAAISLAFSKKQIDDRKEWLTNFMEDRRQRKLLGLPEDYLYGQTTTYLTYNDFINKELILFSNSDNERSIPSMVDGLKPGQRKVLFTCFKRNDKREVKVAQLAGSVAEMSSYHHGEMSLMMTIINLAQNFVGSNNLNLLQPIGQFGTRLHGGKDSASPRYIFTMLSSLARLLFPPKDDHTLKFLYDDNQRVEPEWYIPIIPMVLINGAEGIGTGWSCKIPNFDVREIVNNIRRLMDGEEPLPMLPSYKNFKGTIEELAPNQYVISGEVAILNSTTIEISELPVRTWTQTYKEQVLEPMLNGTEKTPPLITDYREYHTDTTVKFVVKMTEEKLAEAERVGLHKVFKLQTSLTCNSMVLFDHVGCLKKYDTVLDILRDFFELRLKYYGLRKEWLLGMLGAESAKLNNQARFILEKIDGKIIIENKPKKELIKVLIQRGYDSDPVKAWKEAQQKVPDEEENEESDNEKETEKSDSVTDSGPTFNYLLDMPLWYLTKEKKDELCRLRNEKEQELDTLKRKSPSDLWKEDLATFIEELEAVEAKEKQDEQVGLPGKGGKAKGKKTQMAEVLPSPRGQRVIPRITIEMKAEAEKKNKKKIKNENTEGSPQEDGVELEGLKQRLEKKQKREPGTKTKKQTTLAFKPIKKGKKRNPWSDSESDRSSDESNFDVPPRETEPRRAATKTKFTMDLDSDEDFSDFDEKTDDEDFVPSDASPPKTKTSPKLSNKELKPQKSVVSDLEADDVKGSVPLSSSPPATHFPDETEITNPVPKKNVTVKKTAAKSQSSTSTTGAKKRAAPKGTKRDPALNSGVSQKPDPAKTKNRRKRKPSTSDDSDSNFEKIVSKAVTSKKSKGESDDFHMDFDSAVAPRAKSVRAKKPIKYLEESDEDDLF

[2] = Metabolic stability in rat liver S9 fraction assessed as half life at 100 uM measured upto 120 mins in presence of NADPH by HPLC analysis; format: ADME, subcellular
MCF7 = test: cells; conditions: Homo sapiens, MCF7, 72 h
Description: Cytotoxicity against human MCF7 cells assessed as inhibition of cell growth incubated for 72 hrs by MTS assay

HepG2 = test: cells; conditions: Homo sapiens, HepG2, 72 h
Description: Cytotoxicity against human HepG2 cells assessed as inhibition of cell growth incubated for 72 hrs by MTS assay

[3] = Thermodynamic aqueous solubility of compound in PBS buffer at pH 7.4 at 25 degreeC measured after 24 hrs by UPLC analysis; format: physicochemical; conditions: read-out: Therm_solubility
[4] = target: T1, DNA topoisomerase 2-alpha; test: Inhibition of human DNA topoisomerase 2 alpha assessed as ATP hydrolysis measured for 30 mins by absorbance based assay
[5] = Cytotoxicity against HEK293 cells assessed as inhibition of cell growth incubated for 72 hrs by MTS assay; format: toxicity, cell-based; conditions: human
[6] = Selectivity index, ratio of IC50 for HEK293 cells to IC50 for human MCF7 cells; format: toxicity; conditions: HEK293 cells versus MCF7 cells, read-out: Ratio IC50
[7] = Selectivity index, ratio of IC50 for HEK293 cells to IC50 for human HepG2 cells; format: toxicity; conditions: HEK293 cells versus HepG2 cells, read-out: Ratio IC50
K562 = test: Cytotoxicity against human K562 cells assessed as reduction in cell viability at 10 uM by MTT assay; format: functional, cell-based
DNA topoisomerase 1 = target: T2, DNA topoisomerase 1 (Homo sapiens, UniProt P11387); test: Inhibition of human DNA Topoisomerase 1 assessed as relaxation of supercoiled plasmid pBR322 DNA incubated for 30 mins by ethidium bromide staining based agarose gel electrophoresis
T2 sequence (P11387 whole entry): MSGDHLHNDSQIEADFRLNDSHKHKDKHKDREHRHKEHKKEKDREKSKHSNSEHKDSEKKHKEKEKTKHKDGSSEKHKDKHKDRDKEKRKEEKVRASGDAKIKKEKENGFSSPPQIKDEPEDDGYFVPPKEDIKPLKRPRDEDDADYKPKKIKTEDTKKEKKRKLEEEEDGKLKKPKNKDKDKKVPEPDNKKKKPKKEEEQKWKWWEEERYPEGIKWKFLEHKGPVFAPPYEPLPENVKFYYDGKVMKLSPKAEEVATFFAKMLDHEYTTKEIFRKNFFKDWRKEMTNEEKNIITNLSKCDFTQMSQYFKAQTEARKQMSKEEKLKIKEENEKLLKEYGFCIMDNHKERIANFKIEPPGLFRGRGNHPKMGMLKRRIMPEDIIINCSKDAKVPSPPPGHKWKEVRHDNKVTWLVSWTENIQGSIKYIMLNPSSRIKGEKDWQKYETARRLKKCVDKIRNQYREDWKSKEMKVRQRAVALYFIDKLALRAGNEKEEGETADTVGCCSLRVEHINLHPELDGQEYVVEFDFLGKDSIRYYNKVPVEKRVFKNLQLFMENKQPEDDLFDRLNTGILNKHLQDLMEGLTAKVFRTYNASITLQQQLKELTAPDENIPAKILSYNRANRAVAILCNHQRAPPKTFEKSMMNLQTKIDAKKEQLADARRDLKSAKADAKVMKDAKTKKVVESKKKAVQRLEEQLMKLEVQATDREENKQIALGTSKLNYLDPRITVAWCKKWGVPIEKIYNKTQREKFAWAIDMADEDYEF

| Structure (SMILES) | pIC50 [1] | other results |
| --- | --- | --- |
| Cc1[nH]c(C(=O)Nc2ccc(C(=O)NC3CCNCC3)cc2OC(C)C)c(Cl)c1Cl | 5.35 |  |
| CCc1[nH]c(C(=O)Nc2ccc(C(N)=O)cc2OC(C)C)nc1Cl | 5.18 | half-life at 100 µM [2]: > 5 h |
| CCNC(=O)Nc1ccc(OC2CCNCC2)c(NC(=O)c2[nH]c(C)c(Cl)c2Cl)c1 | 4.42 | pIC50 (MCF7): 4.48; pIC50 (HepG2): 4.42 |
| Cc1[nH]c(C(=O)Nc2ccc(C(N)=O)cc2NCCN)c(Cl)c1Cl.Cl | < 4.00 | half-life at 100 µM [2]: > 5 h |
| Cc1[nH]c(C(=O)Nc2ccc(C(N)=O)cc2OCC(=O)N2CCCC(NC(=O)OC(C)(C)C)C2)c(Cl)c1Cl (centres undefined) | < 4.00 |  |
| Cc1[nH]c(C(=O)Nc2ccc(C(N)=O)cc2OC2CCNCC2)c(Cl)c1Cl.Cl |  | half-life at 100 µM [2]: > 5 h |
| Cc1[nH]c(C(=O)Nc2ccc(C(=O)NC3CCCNC3)cc2OC(C)C)c(Cl)c1Cl.Cl (centres undefined) | 5.89 | solubility thermodynamic at 24 h [3]: 4.6 µM; half-life at 100 µM [2]: > 5 h |
| Cc1[nH]c(C(=O)Nc2ccc(C(=O)N[C@@H](Cc3ccccc3)C(=O)O)cc2OC(C)C)c(Cl)c1Cl | 5.30 | pIC50 (MCF7): < 4.30; pIC50 (HepG2): < 4.30 |
| CCc1[nH]c(C(=O)Nc2ccccc2OCc2cccc(C(=O)NCCN)c2)nc1Cl | 4.43 |  |
| C[C@]12CC[C@H]3[C@@H](CCC4=CC(=O)CC[C@@]43C)[C@@H]1CC[C@@H]2O [TESTOSTERONE] |  | half-life at 100 µM [2]: 0.142 h |
| NCCNC(=O)c1cccc(COc2ccccc2NC(=O)c2cc([N+](=O)[O-])c[nH]2)c1 | < 4.00 |  |
| Cc1ccc(C(=O)Nc2ccccc2OCc2cccc(C(=O)NCCN)c2)[nH]1 | < 4.00 |  |
| Cc1[nH]c(C(=O)Nc2ccc(C(=O)N3CCCC(N)C3)cc2OC(C)C)c(Cl)c1Cl (centres undefined) | 4.49 |  |
| COC(=O)[C@@H](C)NC(=O)c1ccc(NC(=O)c2[nH]c(C)c(Cl)c2Cl)c(OC2CCNCC2)c1 | 4.35 | pIC50 (MCF7): 5.06; pIC50 (HepG2): 5.01 |
| Cc1[nH]c(C(=O)Nc2ccccc2OC2CCNCC2)c(Cl)c1Cl.Cl |  | half-life at 100 µM [2]: > 5 h |
| NS(=O)(=O)c1ccc(CNC(=O)c2cc(O)ccc2NC(=O)c2cc(Br)c(Br)[nH]2)cc1 | < 4.00 |  |
| Cc1[nH]c(C(=O)Nc2cc(C(N)=O)ccc2OCCN)c(Cl)c1Cl | 4.74 |  |
| Cc1[nH]c(C(=O)Nc2ccc(C(N)=O)cc2N2CCOC(C)C2)c(Cl)c1Cl (centres undefined) | < 4.00 |  |
| O=C(O)c1ccc(CCNC(=O)c2cc(O)ccc2NC(=O)c2cc(Br)c(Br)[nH]2)cc1 | 4.66 |  |
| CCc1nc2nc(Nc3ccc4nc(OCCN5CCOCC5)ccc4c3)nc(NC(C)(C)C)c2[nH]1 | 6.14 | pIC50 (MCF7): 5.11; pIC50 (HepG2): 4.96 |
| Cc1[nH]c(C(=O)Nc2cc(C(=O)O)ccc2OC2CCN(C(=O)OC(C)(C)C)CC2)c(Cl)c1Cl | 4.42 |  |
| Cc1[nH]c(C(=O)Nc2cc(C(N)=O)ccc2OC2CCNC2)c(Cl)c1Cl (centres undefined) | 4.49 |  |
| Cc1[nH]c(C(=O)Nc2ccccc2OCc2cccc(C(=O)NCCN)c2)c(Cl)c1Cl.Cl | 5.52 | pIC50 [4]: 5.64; IC50 at 72 h [5]: 27 µM; selectivity ratio [6]: 3; selectivity ratio [7]: 1.8; solubility thermodynamic at 24 h [3]: 18 µM; half-life at 100 µM [2]: > 5 h; pIC50 (MCF7): 5.05; pIC50 (HepG2): 4.82 |
| NCCNC(=O)c1cccc(COc2ccccc2NC(=O)c2cc(Cl)c(Cl)[nH]2)c1 | 4.12 |  |
| Cc1[nH]c(C(=O)Nc2ccccc2OCc2cccc(C(=O)NC3CCNC3)c2)c(Cl)c1Cl.Cl (centres undefined) | 5.20 | solubility thermodynamic at 24 h [3]: 15 µM; pIC50 (K562): 6.24 |
| Cc1[nH]c(C(=O)Nc2ccccc2OCc2cccc(C(N)=O)c2)c(Cl)c1Cl | < 4.00 |  |

| Structure (SMILES) | pIC50 [1] | other results |
| --- | --- | --- |
| Cc1[nH]c(C(=O)Nc2ccccc2OCc2cccc(C(=O)NCCN)c2)cc1F | < 4.00 |  |
| COc1ccc(NC(=O)c2[nH]c(C)c(Cl)c2Cl)c(C(=O)NCc2ccc(C(=O)O)cc2)c1 | 4.17 | half-life at 100 µM [2]: > 5 h |
| Cc1[nH]c(C(=O)Nc2ccccc2OCc2cccc(C(=O)O)c2)c(Cl)c1Cl | 4.54 | solubility thermodynamic at 24 h [3]: 2.1 µM (≈ 0.88 µg/mL) |
| Cc1[nH]c(C(=O)Nc2ccccc2OC2CCN(C(=O)OC(C)(C)C)C2)c(Cl)c1Cl (centres undefined) | < 4.00 |  |
| NCCNC(=O)c1cccc(COc2ccccc2NC(=O)c2cc(Br)c(Br)[nH]2)c1 | 4.35 |  |
| Cc1[nH]c(C(=O)Nc2ccccc2OC2CCN(C(=O)OC(C)(C)C)CC2)c(Cl)c1Cl | < 4.00 |  |
| COc1cc(NS(C)(=O)=O)ccc1Nc1c2ccccc2nc2ccccc12 [AMSACRINE] |  | pIC50 (DNA topoisomerase 1): 4.13 |
| COc1ccc(NC(=O)c2[nH]c(C)c(Br)c2Br)c(C(=O)NCCc2ccc(C(=O)O)cc2)c1 | 4.60 |  |
| Cc1[nH]c(C(=O)Nc2ccc(C(N)=O)cc2OCc2cccc(C(=O)NCCC(=O)O)c2)c(Cl)c1Cl | 5.47 |  |
| Cc1[nH]c(C(=O)Nc2cc(C(N)=O)ccc2OC(C)C)c(Cl)c1Cl | < 4.00 |  |
| Cc1[nH]c(C(=O)Nc2ccccc2OCc2cccc(C(=O)NCCN)c2)cc1Cl | 4.46 |  |
| COc1ccc(NC(=O)c2cc(Br)c(Br)[nH]2)c(C(=O)NCc2ccc(C(=O)O)cc2)c1 | 4.41 | half-life at 100 µM [2]: 4.83 h |
| Cc1[nH]c(C(=O)Nc2ccc(C(N)=O)cc2NC(C)C)c(Cl)c1Cl | 4.89 |  |
| Cc1[nH]c(C(=O)Nc2ccc(C(N)=O)cc2OCC(=O)N2CCCC(N)C2)c(Cl)c1Cl (centres undefined) | 5.08 |  |
| Cc1[nH]c(C(=O)Nc2ccc(C(N)=O)cc2N2CCOCC2)c(Cl)c1Cl | < 4.00 |  |
| Cc1[nH]c(C(=O)Nc2ccc(C(=O)N3CCNCC3)cc2OC(C)C)c(Cl)c1Cl | < 4.00 |  |
| Cc1[nH]c(C(=O)Nc2ccc(O)cc2C(=O)NCc2ccc(C(=O)O)cc2)c(Cl)c1Cl | 4.62 |  |
| Cc1[nH]c(C(=O)Nc2ccccc2OCc2cccc(C(=O)NC3CCCNC3)c2)c(Cl)c1Cl.Cl (centres undefined) | 5.11 | IC50 at 72 h [5]: 2.1 µM; selectivity ratio [6]: 14; selectivity ratio [7]: 16; solubility thermodynamic at 24 h [3]: 10 µM; half-life at 100 µM [2]: > 5 h; pIC50 (K562): 6.72; pIC50 (MCF7): 6.82; pIC50 (HepG2): 6.89 |
| Cc1[nH]c(C(=O)Nc2ccc(C(N)=O)cc2OCc2cccc(C(=O)NCCN)c2)c(Cl)c1Cl.Cl | 6.00 | half-life at 100 µM [2]: > 5 h |
| CCc1cnc(C(=O)Nc2ccc(C(N)=O)cc2OC(C)C)[nH]1 | < 4.00 |  |
| Cc1[nH]c(C(=O)Nc2ccc(C(N)=O)cc2OCc2cccc(C(=O)NCC(=O)O)c2)c(Cl)c1Cl | 5.46 |  |
| Cc1[nH]c(C(=O)Nc2cc(C(=O)O)ccc2OC2CCNCC2)c(Cl)c1Cl | < 4.00 |  |
| Cc1[nH]c(C(=O)Nc2ccc(C(=O)NCC3CCNCC3)cc2OC(C)C)c(Cl)c1Cl.Cl | 5.54 | solubility thermodynamic at 24 h [3]: 15 µM |
| Cc1[nH]c(C(=O)Nc2ccc(C(=O)NCC(=O)O)cc2OC(C)C)c(Cl)c1Cl | 5.14 | pIC50 (MCF7): < 4.30; pIC50 (HepG2): < 4.30 |
| Cc1[nH]c(C(=O)Nc2ccccc2OCc2cccc(C(=O)N3CCCC(N)C3)c2)c(Cl)c1Cl (centres undefined) | 4.57 | IC50 at 72 h [5]: 1.7 µM; selectivity ratio [6]: 1.3; selectivity ratio [7]: 0.9; pIC50 (K562): 6.11; pIC50 (MCF7): 5.89; pIC50 (HepG2): 5.72 |
